The values that follow come from paper PMC9676650, “Binding pocket stabilization by high-throughput screening of yeast display libraries” (Frontiers in Molecular Biosciences, 2022).

For experiment [1], the target named is T1, FKBP51 variant S69Y (Homo sapiens, UniProt Q13451, S69Y).
T1 construct: made in house; host or cells: E. coli BL21 (DE3)
T1 sequence (Q13451 1-140 S69Y): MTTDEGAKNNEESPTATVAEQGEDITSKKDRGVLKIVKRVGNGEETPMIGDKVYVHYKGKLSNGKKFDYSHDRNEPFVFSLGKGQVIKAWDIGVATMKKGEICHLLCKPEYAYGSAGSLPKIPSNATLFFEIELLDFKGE
As to the kind of experiment: Fluorescence polarization tracer binding, FKBP51 S69Y. Conditions: for Fold change in Kd improvement: FKBP51 S69Y compared to WT; for Kd: FKBP51 S69Y, 0.5 nM SAFit-FL, 5 nM Mcyc-TA or 1 nM FK [431]-TA, 30 min room temperature. An excerpt: (§1) All ligands and tracers used for fluorescence polarization assays had purities of more than 95%. The following ligands and tracers were used for fluorescence polarization and FACS screening experiments: •SAFit-FL tracer (1): Fluorescein conjugated analog of the iFit ligand class. •Mcyc-TA tracer (2): TAMRA conjugated macrocyclic ligand (5). •FK [431]-TA tracer (3): TAMRA conjugated FK [431] ligand (6). •SAFit1 ligand (4): analog of the iFit ligand class. •macrocyclic ligand (5):macrocyclic analog of the SAFit class ligands. •FK [431] ligand (6):bicyclic analog of the immunosuppressive drug FK506
(§2) The binding of the generated FKBP51 variants to different conformation-sensitive FKBP ligands was investigated by fluorescence polarization assays. Therefore, a serial dilution of the respective FKBP51 variant in assay buffer (20 mM HEPES pH 8.0, 150 mM NaCl, 0.015% Triton X-100) was placed in a 384-well assay plate and a defined amount of the respective fluorescent tracer (0.5 nM of the SAFit based tracer SAFit-FL (1), 5 nM of the macrocyclic tracer Mcyc-TA 2) or 1 nM of the FK [431]-TA 3) in assay buffer was added to the protein buffer mixture. After incubation for 30 min at room temperature, the fluorescence polarization was measured with a plate reader. The obtained results for each 3 independent experiments were normalized with respect to the maximal binding signal and fitted to a one-site binding model as described by [Wang et al., 1992] yielding the respective binding constants. tracer bound=100/Lt×0.5×(Rt+Lt+KD−(Rt+Lt+KD)^2−4×LtRt) With L t , total concentration of the tracer, R t , total concentration of the receptor and K D binding constant of the complex RL.
A general note: Fluorescence polarisation rises when a labelled molecule tumbles more slowly, as on binding a larger partner.

For experiment [2], the target named is T2, FKBP51 variant G64S (Homo sapiens, UniProt Q13451, G64S).
T2 construct: made in house; host or cells: E. coli BL21 (DE3)
T2 sequence (Q13451 1-140 G64S): T1 sequence (Q13451 1-140 S69Y) with G64S, Y69S
Nature of the experiment: Fluorescence polarization tracer binding, FKBP51 G64S. As to conditions: for Kd: FKBP51 G64S, 0.5 nM SAFit-FL, 5 nM Mcyc-TA or 1 nM FK [431]-TA, 30 min room temperature.
Description: as §1, §2

The target in experiment [3] is T3, FKBP51 variant F67R (Homo sapiens, UniProt Q13451, F67R).
T3 construct: made in house; host or cells: E. coli BL21 (DE3)
T3 sequence (Q13451 1-140 F67R): T1 sequence (Q13451 1-140 S69Y) with F67R, Y69S
Nature of the experiment: Fluorescence polarization tracer binding, FKBP51 F67R. As to conditions: for Fold change in Kd improvement: FKBP51 F67R compared to WT; for Kd: FKBP51 F67R, 0.5 nM SAFit-FL, 5 nM Mcyc-TA or 1 nM FK [431]-TA, 30 min room temperature.
Description: as §1, §2

Experiment [4] deals with T4, FKBP51 variant N63G (Homo sapiens, UniProt Q13451, N63G).
T4 construct: made in house; host or cells: E. coli BL21 (DE3)
T4 sequence (Q13451 1-140 N63G): T1 sequence (Q13451 1-140 S69Y) with N63G, Y69S
As to the kind of experiment: Fluorescence polarization tracer binding, FKBP51 N63G. Conditions: for Fold change in Kd improvement: FKBP51 N63G compared to WT; for Kd: FKBP51 N63G, 0.5 nM SAFit-FL, 5 nM Mcyc-TA or 1 nM FK [431]-TA, 30 min room temperature.
Description: as §1, §2

The target in experiment [5] is T5, FKBP51 variant G64A (Homo sapiens, UniProt Q13451, G64A).
T5 construct: made in house; host or cells: E. coli BL21 (DE3)
T5 sequence (Q13451 1-140 G64A): T1 sequence (Q13451 1-140 S69Y) with G64A, Y69S
Nature of the experiment: Fluorescence polarization tracer binding, FKBP51 G64A. Conditions: for Fold change in Kd improvement: FKBP51 G64A compared to WT; for Kd: FKBP51 G64A, 0.5 nM SAFit-FL, 5 nM Mcyc-TA or 1 nM FK [431]-TA, 30 min room temperature.
Description: as §1, §2

Experiment [6] addresses T6, FKBP51 variant G64E (Homo sapiens, UniProt Q13451, G64E).
T6 construct: made in house; host or cells: E. coli BL21 (DE3)
T6 sequence (Q13451 1-140 G64E): T1 sequence (Q13451 1-140 S69Y) with G64E, Y69S
As to the kind of experiment: Fluorescence polarization tracer binding, FKBP51 G64E. Conditions: for Fold change in Kd improvement: FKBP51 G64E compared to WT; for Kd: FKBP51 G64E, 0.5 nM SAFit-FL, 5 nM Mcyc-TA or 1 nM FK [431]-TA, 30 min room temperature.
Description: as §1, §2

Experiment [7] addresses T7, FKBP51 variant D68Y (Homo sapiens, UniProt Q13451, D68Y).
T7 construct: made in house; host or cells: E. coli BL21 (DE3)
T7 sequence (Q13451 1-140 D68Y): T1 sequence (Q13451 1-140 S69Y) with D68Y, Y69S
Nature of the experiment: Fluorescence polarization tracer binding, FKBP51 D68Y. Conditions: for Fold change in Kd improvement: FKBP51 D68Y compared to WT; for Kd: FKBP51 D68Y, 0.5 nM SAFit-FL, 5 nM Mcyc-TA or 1 nM FK [431]-TA, 30 min room temperature.
Description: as §1, §2

Experiment [8] concerns the target T8, FKBP51 variant F67S (Homo sapiens, UniProt Q13451, F67S).
T8 construct: made in house; host or cells: E. coli BL21 (DE3)
T8 sequence (Q13451 1-140 F67S): T1 sequence (Q13451 1-140 S69Y) with F67S, Y69S
As to the kind of experiment: Fluorescence polarization tracer binding, FKBP51 F67S. Conditions: for Fold change in Kd improvement: FKBP51 F67S compared to WT; for Kd: FKBP51 F67S, 0.5 nM SAFit-FL, 5 nM Mcyc-TA or 1 nM FK [431]-TA, 30 min room temperature.
Description: as §1, §2

Experiment [9] addresses T9, FKBP51 variant F67E (Homo sapiens, UniProt Q13451, F67E).
T9 construct: made in house; host or cells: E. coli BL21 (DE3)
T9 sequence (Q13451 1-140 F67E): T1 sequence (Q13451 1-140 S69Y) with F67E, Y69S
Nature of the experiment: Fluorescence polarization tracer binding, FKBP51 F67E. Conditions: for Kd: FKBP51 F67E, 0.5 nM SAFit-FL, 5 nM Mcyc-TA or 1 nM FK [431]-TA, 30 min room temperature.
Description: as §1, §2

By Kd is commonly meant the constant that tells how readily two partners part at equilibrium. A higher Kd goes with a looser complex.

Positions count from the first letter of the chain named. Values joined by “and” are separate entries in the source; they are usually repeats but may differ in a detail not shown here. Equal values may be shown once.

For `CN(C)c1ccc2c(-c3cc(C(=O)NCCn4cc([C@H]5CN(Cc6ccccn6)C(=O)[C@@H]6CCC[C@H]5N6S(=O)(=O)c5cc(Cl)cc(Cl)c5)nn4)ccc3C(=O)O)c3ccc(=[N+](C)C)cc-3oc2c1` [FK [431]-TA], the “Fold change in Kd improvement” value in [1] turned out to be 0.077 fold; in experiment [3] it was 0.016 fold; in experiment [4] it was 0.850 fold; in experiment [5], 0.084 fold; in experiment [6] it was 0.268 fold; in [7], 0.134 fold. Moreover, the figures for the “Fold change in Kd improvement” value in [7] (listed as 3), in [8] and in experiment [9] (FKBP51 F67E compared to WT) were “no improvement”, 0.004 fold and 0.004 fold, respectively. Besides, the Kd was 66 ± 2 nM in experiment [1]; 11 ± 1 nM in experiment [2]; 312 ± 14 nM in [3]; 6 ± 0.2 nM in experiment [4]; 61 ± 2 nM in [5]; 19 ± 1 nM in experiment [6]. The Kd in [7] was 38 ± 2 nM; in experiment [8], 1240 ± 60 nM; in experiment [9] it was 1330 ± 66 nM.
Turning to `COc1ccc(CC[C@H]2OC(=O)[C@@H]3CCCCN3C(=O)[C@@H](C3CCCCC3)NC(=O)C(C)(C)NC(=O)COc3cc(OCCNC(=O)c4ccc(C(=O)O)c(-c5c6ccc(=[N+](C)C)cc-6oc6cc(N(C)C)ccc56)c4)cc2c3)cc1OC` [Mcyc-TA], the “Fold change in Kd improvement” value in [1] was 1.41 fold; in [2] (FKBP51 G64S compared to WT), 34 fold and 34.29 fold; in experiment [3] it was 1.00 fold; in [4] it was 3.16 fold; in [5], 5.71 fold; in experiment [6], 7.27 fold. The “Fold change in Kd improvement” value in experiment [7] is 34 fold and 34.29 fold; in experiment [8], 1.14 fold. The Kd in experiment [1] was determined as 17 ± 1 nM; in experiment [2], 0.7 ± 0.2 nM; in experiment [3] it was 24 ± 3 nM; in experiment [4] it was 7.6 ± 0.9 nM; in experiment [5] it was 4.2 ± 0.5 nM; in experiment [6] it was 3.3 ± 0.3 nM. For the same molecule, the Kd amounted to 0.7 ± 0.1 nM in [7], 21 ± 2 nM in experiment [8] and 5 ± 0.5 nM in [9].
